In patent publication US6465526B1, “Natural mixture composed of higher primary aliphatic alcohols obtained from bee wax for the treatment of gastric and duodenal ulcers that also present antiinflamatory activity” (Laboratories Dalmer SA, priority 1994, dated 2002):
Marks after values point to notes of the source that are not given here.

How the values were obtained:
Format in all cases: in vivo, Sprague Dawley rats
acid gastric secretion = experiment: gastric acidity in the model of pilorous ligatured; settings: 4 h after pilorous ligature
Method: The results obtained in last examples sugest an action over ulcer induced by acid compounds dependent or independent. With the objective of discard the inhibitory effect over the inhibition of the acid gastric secretion was determined the action of […]. over this acid gastric secretion in the pilorous ligature model. Female Sprague Dawley rats, weighing 150 to 200 g were adapted to laboratory conditions for 15 days with water and food ad libitum. The animals were randomly distributed in different experimental groups and food was deprived 48 h previous to the ligature. […]. was administered intraperitoneally in a 2% Tween 20/water suspension. Cimetidine was dissolved in hot water and administered by the same route as […]. […] Rats were anaesthetized with ether and an incision, in the abdominal region was done, stomachs were extracted and pilorous were ligatured with thread. […], after that, the compound was administered by i.p. route and 3 mL of saline solution were injected by subcutaneous route. Four h later, the animals were sacrificed, intact stomachs were extracted, tweezed by the esophagus. The gastric content was centrifuged at 3000 min^-1 for 10 min and, later on, the volume was measured. The acidity of the gastric juice was measured using 0.1 mol/L NaOH and phenolphtalein as indicator. The comparison between the treated groups and the control one was realized using the non parametric U de Mann Whitney test.

[1] = system: gastric ulcer induced by alcohol (60%) and indometacine (10 mg/kg); experiment: gastric ulcer induced by alcohol (60%) and indometacine (10 mg/kg)
Method: The objective of the present work is to determine if the protective effect of […]. against ulcer is dependent of prostaglandins or not. Male Sprague Dawley rats, weighting 150 to 200 g, were adapted to laboratory conditions for 7 days with water and food ad libitum, up to 48 h previous to the experiment, where food is suppressed. The animals were randomly distributed in 4 experimental groups. […]. was administered intraperitoneally in a 2% Tween 20/water suspension, cimetidine was dissolved in hot water and indomethacine in 5% sodium bicarbonate. […] […] after the animals were injected by i.p. route indomethacine was administered at 10 mg/kg by subcutaneous route. Half an hour later, was administered 60% alcohol and, an hour later, the animals were sacrificed. The stomachs were extracted, opened by the bigger curvature and measured the size of the ulcer using a 3× enlargement. Results were expressed in […]. In all cases, the comparison between the treated groups and the control one was realized using the non parametric U de Mann Whitney test.

[2] = system: pleuresy induced by carragenine; experiment: pleuresy induced by carragenine; settings: for Exudate volume: 1 h before carragenine, 5 h
Method: Pleuresy by carragenine: Male Sprague Dawley rats were used (200-250 g) and adapted to laboratory conditions for 15 days with water and food ad libitum and were deprived of food 12 h previous to the experiment. M.H.A.A.B.W. was administered in a 10 mg/mL acacia gum/water suspension, as well as triacontanol, while indomethacine was dissolved in 5% sodium bicarbonate.
All the treatments were administered using gastric gavage one hour previous to the injection of carragenine. Rats were randomly distributed in the following experimental groups: 1) control (vehicle); 2, 3 and 4) M.H.A.A.B.W. at 25, 50 and 100 mg/kg respectively; 5) triacontanol at 50 mg/kg and 6) indomethacine at 10 mg/kg.
For the induction of the edema, rats were anesthesized with ether and 0.3 mL of carragenine in 1% of saline solution were injected in the pleural cavity. Five hours later, the animals were sacrificed and the exudate were colected, determining its volume. The percent of inhibition of the edema is calculated using the following formula:
Inhibition (%)=1−(VT)/(VC)×100
VT=volume of the edema of treated animals
VC=volume of the edema of control animals

cotton granule = experiment: model of cotton granule; settings: 3 mg/kg orally, 6 days
Method: In order to corroborate the antiinflamatory effect of the […]. are used the pleuresy induced by carragenine and the granule by cotton models, those ones that constitute established models for the evaluation of antiinflamatory drugs. Granule by cotton: Male Sprague Dawley rats, weighing 200 to 250 g, were adapted to laboratory conditions in the same way as the last experiment. […]. was administered orally in a 2% Tween 20/water suspension, while administered orally in a 5% sodium bicarbonate. […] Rats were randomly distributed in 5 experimental groups: 1) control (vehicle); 2, 3, and 4) […]. at 25, 50 and 100 mg/kg respectively and 5) indomethacine at 3 mg/kg. Rats were, previously, anaesthetized with ether, doing an incision in the dorsal region. The […] cotton pellet of 50 mg was sub-cutaneously and applied with a local […] finally the injured is closed. […] The percent of inhibition was […] taking as reference the weight of the granule formed in the control group.

[3] = 25 mg/kg i.p., indomethacine 10 mg/kg s.c. + 60% alcohol

In the case of `CN/C(=N/CCSCc1nc[nH]c1C)NC#N` [Cimetidine, cimetidine], the Acidity (acid gastric secretion; 25 mg/kg i.p.) was 0,080 +/− 0,009* meq H^+/mL, the Gastric juice volume (acid gastric secretion; 25 mg/kg i.p.) was 5,87 +/− 0,63* mL and the Acidity (acid gastric secretion; 50 mg/kg i.p.) was 0,083 +/− 0,006** meq H^+/mL. The Gastric juice volume (acid gastric secretion; 50 mg/kg i.p.) was 5,83 +/− 0,38** mL, the Inhibition [1, 3] was 71.2% and the Ulcer [1, 3] was 14.6 +/− 5.64* mm.
With `COc1ccc2c(c1)c(CC(=O)O)c(C)n2C(=O)c1ccc(Cl)cc1` [Indometacine, indomethacine] the Inhibition ([2]; 10 mg/kg oral) was 59.6%, the Exudate volume ([2]; 10 mg/kg oral) was 0.50 ± 0.15 mL and the Ulcer ([1]; indometacine alone (10 mg/kg s.c.), no alcohol) was 0 mm. For the same compound, the Inhibition (cotton granule) was 69.3% and the Weight of granule (cotton granule) was 79 + 0.02 ** mg.
`CCCCCCCCCCCCCCCCCCCCCCCCCCCCCCO` [Triacontanol, 1-triacontanol] gave an Inhibition ([2]; 100 mg/kg oral (maximum dose assayed)) of 27.4% and an Exudate volume ([2]; 100 mg/kg oral) of 0.96 ± 0.30 mL.
